Measured values as given in doi:10.1101/2025.04.25.650653, “Hierarchical small molecule inhibition of MYST acetyltransferases” (bioRxiv, 2025).
Values joined by “and” are separate entries in the source; they are usually repeats but may differ in a detail not shown here. Equal values may be shown once.

Test system: histone modifications in MCF-7 cells
Assay: Histone modification analysis by bottom-up LC-MS/MS;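 as to Ratio, H2AV 1 19 K11ac*: inhibitor concentrations in µM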;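 as to Ratio, H2AX 4 11 K5acK9ac: inhibitor concentrations in µM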;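 as to Ratio, H2AX 4 11 K9ac: inhibitor concentrations in µM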;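 as to Ratio, H2AZ 1 19 K15ac: inhibitor concentrations in µM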;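 as to Ratio, H2AZ 1 19 K4ac: inhibitor concentrations in µM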;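 as to Ratio, H2AZ 1 19 K4acK11ac: inhibitor concentrations in µM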
Assay type: cell-based
Excerpt: In this approach. […] Histones are then extracted from cell pellets and chemically derivatized with propionic anhydride, digested with trypsin, subjected to a second round of propionylation, and analyzed by LC-MS/MS. Measuring the relative intensity of modified versus unmodified forms of individual histone peptides enables simultaneous monitoring of multiple potential biomarkers of MYST inhibition. To minimize false positives, we focused on abundant and reproducible modifications (average stoichiometry of greater than 1% across triplicate samples, standard deviation less than or equal to the average measurement). To account for potential histone modification crosstalk, changes in both acetylated and methylated peptides were evaluated. 38 modified peptides passed this reproducible detection threshold including several established KAT biomarkers[41] including H3K9Ac (KAT2A/B), H3K18Ac (KAT3A/B), H3K14Ac (KAT7), H3K23Ac (KAT6A/B), H4K16Ac (KAT8), and H2A.ZK4/K7Ac (KAT5; Fig. 4B).
Histone modification analysis
MCF-7 cells were cultured at 37 °C under 5% CO2 in EMEM (Quality Biological, 112-016-101) with 0.01 mg/mL human recombinant insulin (Sigma Aldrich, 91077C), 2 mM L-glutamine (Quality Biological, 118- […]
human recombinant insulin.
1119, WM-3835). Following 24 h inhibitor treatment, cells were washed with ice-cold 1× PBS and scraped in 150 µL of Nuclear Isolation Buffer (NIB) containing 0.1% NP-40 for histone extraction using a modified protocol from the Garcia laboratory. 9 Briefly, cell suspensions were incubated on ice for 5 minutes, and […]
nuclei were pelleted by centrifugation (600 rcf, 4°C, 5 min). Pelleted nuclei were washed twice with 150 μL of detergent-free NIB buffer, followed by centrifugation (600 rcf, 4°C, 5 min) to remove all detergent.
Nuclei were then resuspended in 400 μL of 0.4 N H₂SO₄ and rotated at 4°C overnight for acid extraction of histones. The following day, samples were centrifuged (11,000 rcf, 4°C, 10 min) and the histone-containing supernatant was transferred to a fresh tube. Trichloroacetic acid (100% TCA) was added to achieve a final concentration of 20% (v/v), tubes were inverted once to mix, and histone precipitation was performed on ice for at least 3 hours or overnight at 4°C. Precipitated histones were collected by centrifugation (11,000 rcf, 4°C, 10 min) and the supernatant carefully removed, leaving a visible film of histones on the tube wall or bottom. Histone pellets were subjected to sequential washes with 1 mL of ice-cold acidified acetone (0.1% 12 N HCl) followed by 1 mL of 100% ice-cold acetone, with centrifugation (11,000 rcf, 4°C, 5 min) after each wash. Samples were air-dried at room temperature, resuspended in 40 µL of ddH₂O, and protein […]
analysis, 1-2 µg of purified histones were loaded per lane and processed according to the general immunoblotting protocol described in General Materials and Methods.
Analysis of histone modifications by LC-MS/MS
Preparation of histone samples for LC-MS/MS was performed analogously to the procedure for immunoblotting above, with the following modifications. MCF7 cells (4.2 × 106) were seeded in 15 cm dishes and treated with PF-9363 or vehicle. Experiments were performed in triplicate. Following treatment and PBS washing, cells were scraped and collected in 15 mL falcon tubes, pelleted (500 rcf, 4°C, 5 min), resuspended in 1 mL cold PBS, transferred to microcentrifuge tubes, and pelleted again before flash-freezing in liquid nitrogen for storage at -80°C. For extraction, cell pellets (~100 μL) were resuspended in NIB buffer at a 1:10 ratio, and cells were lysed with NIB buffer containing 0.2% NP-40 for 8 minutes on ice. Nuclei were pelleted at 1,000 rcf for 8 minutes and washed three times with 500 μL detergent-free NIB buffer. Histones were extracted using 800 μL of 0.2 M H₂SO₄, and after centrifugation (3,400 rcf, 4°C, 10

[1] = KAT marker KAT5, PF-9363 0.1, Replicates 1-3
[2] = KAT marker KAT5, PF-9363 1, Replicates 1-3
[3] = KAT marker KAT5, PF-9363 10, Replicates 1-3
[4] = KAT marker KAT5, PF-9363 30, Replicates 1-3
[5] = KAT marker KAT5, PF-9363 (0.1 mM)
[6] = KAT marker KAT5, PF-9363 (30 mM)
[7] = KAT marker KAT5, average ratio 0.1 v 30

COc1cccc(OC)c1S(=O)(=O)Nc1noc2cc(Cn3cccn3)cc(OC)c12 [PF-9363]
Ratio, H2AV_1_19 K11ac* [1]: 0.007595 and 0.00642 and 0.01986 | Ratio, H2AX_4_11 K5acK9ac [1]: 0.05241 and 0.03954 and 0.03977 | Ratio, H2AX_4_11 K9ac [1]: 0.01011 and 0.01143 and 0.00727 | Ratio, H2AZ_1_19 K4ac [1]: 0.0934 and 0.07612 and 0.06178 | Ratio, H2AZ_1_19 K4acK11ac [1]: 0.01166 and 0.008639 and 0.01028 | Ratio, H2AZ_1_19 K15ac [1]: 0.004599 and 0.02439 and 0.01482 | Ratio, H2AV_1_19 K11ac* [2]: 0.004474 and 0.01793 and 0.01146 | Ratio, H2AX_4_11 K5acK9ac [2]: 0.01434 and 0.002712 and 0.0302 | Ratio, H2AX_4_11 K9ac [2]: 0.009767 and 0.01635 and 0.01121 | Ratio, H2AZ_1_19 K4ac [2]: 0.09212 and 0.06375 and 0.07053 | Ratio, H2AZ_1_19 K4acK11ac [2]: 0.007173 and 0.01149 and 0.00767 | Ratio, H2AZ_1_19 K15ac [2]: 0.003136 and 0.01439 and 0.00489 | Ratio, H2AV_1_19 K11ac* [3]: 0.01122 and 0 and 0.008954 | Ratio, H2AX_4_11 K5acK9ac [3]: 0.00945 and 0.08577 and 0.02854 | Ratio, H2AX_4_11 K9ac [3]: 0.01063 and 0.01009 and 0.01309 | Ratio, H2AZ_1_19 K4ac [3]: 0.08614 and 0 and 0.04884 | Ratio, H2AZ_1_19 K4acK11ac [3]: 0.008371 and 0 and 0.01009 | Ratio, H2AZ_1_19 K15ac [3]: 0.007824 and 0 and 0.01105 | Ratio, H2AV_1_19 K11ac* [4]: 0.005769 and 0.002136 and 0.002357 | Ratio, H2AX_4_11 K5acK9ac [4]: 0.04001 and 0.01893 and 0.03445 | Ratio, H2AX_4_11 K9ac [4]: 0.01286 and 0.00924 and 0.00685 | Ratio, H2AZ_1_19 K4ac [4]: 0 and 0.02795 and 0.04699 | Ratio, H2AZ_1_19 K4acK11ac [4]: 0 (2×) and 0.004492 | Ratio, H2AZ_1_19 K15ac [4]: 0 and 0.01504 and 0.003466 | Average ratio, H2AV_1_19 K11ac* [5]: 0.0113 | Average ratio, H2AX_4_11 K5acK9ac [5]: 0.0439 | Average ratio, H2AX_4_11 K9ac [5]: 0.0096 | Average ratio, H2AZ_1_19 K4ac [5]: 0.0771 | Average ratio, H2AZ_1_19 K4acK11ac [5]: 0.0102 | Average ratio, H2AZ_1_19 K15ac [5]: 0.0146 | Average ratio, H2AV_1_19 K11ac* [6]: 0.0034 | Average ratio, H2AX_4_11 K5acK9ac [6]: 0.0311 | Average ratio, H2AX_4_11 K9ac [6]: 0.0097 | Average ratio, H2AZ_1_19 K4ac [6]: 0.0250 | Average ratio, H2AZ_1_19 K4acK11ac [6]: 0.0015 | Average ratio, H2AZ_1_19 K15ac [6]: 0.0062 | Fold-change 0.1 v 30, H2AV_1_19 K11ac* [7]: 3.30 | Fold-change 0.1 v 30, H2AX_4_11 K5acK9ac [7]: 1.41 | Fold-change 0.1 v 30, H2AX_4_11 K9ac [7]: 1.00 | Fold-change 0.1 v 30, H2AZ_1_19 K4ac [7]: 3.09 | Fold-change 0.1 v 30, H2AZ_1_19 K4acK11ac [7]: 6.81 | Fold-change 0.1 v 30, H2AZ_1_19 K15ac [7]: 2.37 | Fold-change 0.1 v 30, H3_18_26 unmod (KQLATKAAR(H3_18_26), PF-9363 0.1 v 30): 0.96 | Average ratio, H3_18_26 unmod (KQLATKAAR(H3_18_26), PF-9363 (0.1 mM)): 0.9434 | Average ratio, H3_18_26 unmod (KQLATKAAR(H3_18_26), PF-9363 (30 mM)): 0.9781 | Ratio, H3_73_83 K79me1 (PF-9363 0.1, Replicates 1-3): 0.07799 and 0.09275 and 0.09546 | Ratio, H3_73_83 K79me2 (PF-9363 0.1, Replicates 1-3): 0.05292 and 0.1051 and 0.06234 | Ratio, H3_73_83 unmod (PF-9363 0.1, Replicates 1-3): 0.8672 and 0.8006 and 0.8413 | Ratio, H4_4_17 K12acK16ac (PF-9363 0.1, Replicates 1-3): 0.009379 and 0.008608 and 0.009722 | Ratio, H4_4_17 unmod (PF-9363 0.1, Replicates 1-3): 0.6357 and 0.6297 and 0.6309 | Ratio, H4_20_23 K20me1 (PF-9363 0.1, Replicates 1-3): 0.02877 and 0.03606 and 0.02758 | Ratio, H4_20_23 unmod (PF-9363 0.1, Replicates 1-3): 0.03039 and 0.02967 and 0.02773 | Fold-change 0.1 v 30, H2A1_12_17 unmod (AKAKTR) (PF-9363 0.1 v 30, peptide H2A1_12_17 unmod, MCF-7): 0.98 | Fold-change 0.1 v 30, H2A3_12_17 K15me1 (AKAKSR) (PF-9363 0.1 v 30, peptide H2A3_12_17 K15me1, MCF-7): 0.96 | Ratio, H2A1_1_11 K5ac (PF-9363 1, Replicates 1-3): 0.9077 and 0.9494 and 0.9116 | Ratio, H2A1_4_11 K5ac (PF-9363 1, Replicates 1-3): 0.06275 and 0.03204 and 0.05607 | Ratio, H2A1_4_11 K9ac (PF-9363 1, Replicates 1-3): 0.0308 and 0.06179 and 0.03113
